Measurements reported in patent US8410153B2, “Naphthalene isoxazoline invertebrate pest control agents” (E.I. du Pont de Nemours and Company, priority 2007, dated 2013).

Assays:
Format in all cases: in vivo
[1] = system: diamondback moth (Plutella xylostella); experiment: Test A: control of diamondback moth on radish plant, foliar spray; details: sprayed at 50 ppm, held 6 days
In short: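 Radish plants 12–14 days old, pre-infested with about 50 neonate larvae, sprayed at 50 ppm in 10% acetone/water with 300 ppm X-77 surfactant; three replicates. After 6 days at 25° C and 70% RH, feeding damage was scored visually and mortality counted.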

[2] = system: fall armyworm (Spodoptera frugiperda); experiment: Test B: control of fall armyworm on corn (maize) plant, foliar spray; details: sprayed at 50 ppm
In short: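 4-5-day-old corn plants pre-infested with 10-15 1-day-old larvae on insect diet, then sprayed with compound at 50 ppm in 10% acetone/90% water with 300 ppm surfactant, three replicates. Held 6 days at 25° C, 70% RH; feeding damage assessed visually and mortality rated.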

[3] = system: western flower thrips (Frankliniella occidentalis); experiment: Test E: control of western flower thrips on Soleil bean plant, contact and/or systemic; details: held 6 days
In short: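 5–7-day-old Soleil bean plants were sprayed at 250 or 50 ppm in 10% acetone/90% water with 300 ppm X-77 surfactant, three replicates. After drying 1 h, 22–27 adult thrips were added per unit. Mortality and plant damage were rated after 6 days at 25 °C and 45–55% RH.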

Measured: levels of control efficacy (20% or less feeding damage or 80% or more mortality)

O=C(CNC(=O)c1ccc(C2=NOC(c3cccc(C(F)(F)F)c3)(C(F)(F)F)C2)c2ccccc12)NCC(F)(F)F (racemic) [Compound 35]
very good to excellent: [1] | [2] | [3]; sprayed at 250 ppm

C[S+]([O-])CCNC(=O)c1ccc(C2=NOC(c3cc(Cl)cc(Cl)c3)(C(F)(F)F)C2)c2ccccc12 (centres unmarked) [Compound 18]
very good to excellent: [1] | [2] | [3]; sprayed at 50 ppm | [3]; sprayed at 250 ppm

CC(C)CNC(=O)CNC(=O)c1ccc(C2=NOC(c3cc(Cl)cc(C(F)(F)F)c3)(C(F)(F)F)C2)c2ccccc12 (centres unmarked) [Compound 118]
very good to excellent: [1] | [2] | [3]; sprayed at 250 ppm

O=C(CNC(=O)c1ccc(C2=NOC(c3cc(Cl)cc(Cl)c3)(C(F)(F)F)C2)c2ccccc12)NCC(F)(F)F (centres unmarked) [Compound 1]
very good to excellent: [1] | [2] | [3]; sprayed at 50 ppm | [3]; sprayed at 250 ppm

CS(=O)(=O)CCNC(=O)c1ccc(C2=NOC(c3cc(C(F)(F)F)cc(C(F)(F)F)c3)(C(F)(F)F)C2)c2ccccc12 (racemic) [Compound 49]
very good to excellent: [1] | [2] | [3]; sprayed at 50 ppm | [3]; sprayed at 250 ppm

CSCCNC(=O)c1ccc(C2=NOC(c3cc(C(F)(F)F)cc(C(F)(F)F)c3)(C(F)(F)F)C2)c2ccccc12 (racemic) [Compound 58]
very good to excellent: [1] | [2] | [3]; sprayed at 50 ppm | [3]; sprayed at 250 ppm

CSCCNC(=O)c1ccc(C2=NOC(c3cc(Br)cc(Br)c3)(C(F)(F)F)C2)c2ccccc12 (centres unmarked) [Compound 21]
very good to excellent: [1] | [2] | [3]; sprayed at 50 ppm | [3]; sprayed at 250 ppm

CCNC(=O)C(C)NC(=O)c1ccc(C2=NOC(c3cc(C(F)(F)F)cc(C(F)(F)F)c3)(C(F)(F)F)C2)c2ccccc12 (centres unmarked) [Compound 88]
very good to excellent: [1] | [2] | [3]; sprayed at 50 ppm | [3]; sprayed at 250 ppm

CCNC(=O)CNC(=O)c1ccc(C2=NOC(c3cc(C(F)(F)F)cc(C(F)(F)F)c3)(C(F)(F)F)C2)c2ccccc12 (centres unmarked) [Compound 100]
very good to excellent: [1] | [2] | [3]; sprayed at 50 ppm

CC(C)NC(=O)CNC(=O)c1ccc(C2=NOC(c3cc(C(F)(F)F)cc(C(F)(F)F)c3)(C(F)(F)F)C2)c2ccccc12 (racemic) [Compound 40]
very good to excellent: [1] | [2] | [3]; sprayed at 50 ppm | [3]; sprayed at 250 ppm

CC(C)(C)CNC(=O)CNC(=O)c1ccc(C2=NOC(c3cc(Cl)cc(C(F)(F)F)c3)(C(F)(F)F)C2)c2ccccc12 (centres unmarked) [Compound 120]
very good to excellent: [1] | [2] | [3]; sprayed at 50 ppm | [3]; sprayed at 250 ppm

CSCC(C)NC(=O)c1ccc(C2=NOC(c3cc(Cl)cc(Cl)c3)(C(F)(F)F)C2)c2ccccc12 (mixture of isomers) [Compound 29]
very good to excellent: [1] | [2] | [3]; sprayed at 50 ppm | [3]; sprayed at 250 ppm

CC(C)(NC(=O)c1ccc(C2=NOC(c3cc(Cl)cc(Cl)c3)(C(F)(F)F)C2)c2ccccc12)C(=O)NCC(F)(F)F (centres unmarked) [Compound 4]
very good to excellent: [1] | [2] | [3]; sprayed at 50 ppm | [3]; sprayed at 250 ppm

CSCCNC(=O)c1ccc(C2=NOC(c3cc(Cl)c(Cl)c(Cl)c3)(C(F)(F)F)C2)c2ccccc12 (centres unmarked) [Compound 15]
very good to excellent: [1] | [2] | [3]; sprayed at 50 ppm | [3]; sprayed at 250 ppm

O=C(CNC(=O)c1ccc(C2=NOC(c3cc(Br)cc(Br)c3)(C(F)(F)F)C2)c2ccccc12)NCC(F)(F)F (centres unmarked) [Compound 23]
very good to excellent: [1] | [2] | [3]; sprayed at 50 ppm | [3]; sprayed at 250 ppm

CC(NC(=O)c1ccc(C2=NOC(c3cc(Cl)cc(Cl)c3)(C(F)(F)F)C2)c2ccccc12)C(=O)NC(C)C(F)(F)F (mixture of isomers) [Compound 123]
very good to excellent: [1] | [2] | [3]; sprayed at 50 ppm | [3]; sprayed at 250 ppm

CC(C)NC(=O)CNC(=O)c1ccc(C2=NOC(c3cc(Br)cc(C(F)(F)F)c3)(C(F)(F)F)C2)c2ccccc12 (racemic) [Compound 53]
very good to excellent: [1] | [2] | [3]; sprayed at 50 ppm | [3]; sprayed at 250 ppm
